System: Plasmodium berghei
Assay: Luciferase/luciferin-expressing antifolate-resistant parasites were used to infect a culture of HepG2 cells that were pre-incubated with compounds. Infected hepatocytes emit light due to the luciferase reaction. Assay results are presented as the percent inhibition of light emission compared to control. […]
Type: functional
Details: sporozoite; for IC90: read-out: LUCIFERASE INFECTION ASSAY - IC90
[1] = PBLUC_HILL_SLOPE 3.93, PBLUC_R_SQUARED 0.959, read-out: LUCIFERASE INFECTION ASSAY - IC50

Compound	IC90 [µM]	further results
Cc1nn(Cc2ccccc2)c(Cl)c1/C=C/C(=O)OC(C)C(=O)N1CCCC1 (configuration not stated)	4.19	IC50 (PBLUC_HILL_SLOPE 3.98, PBLUC_R_SQUARED 0.412, read-out: LUCIFERASE INFECTION ASSAY - IC50): 2.41 µM
O=C(Nc1ccc(Cl)cc1)/C(=C/c1ccc([N+](=O)[O-])cc1)c1nc2ccccc2s1	> 10	IC50 (PBLUC_HILL_SLOPE 3.91, PBLUC_R_SQUARED 0.341, read-out: LUCIFERASE INFECTION ASSAY - IC50): 7.67 µM
Cc1ccc(NC(=O)Nc2ccc(Cl)c(Cl)c2)nc1	9.58	IC50 (PBLUC_HILL_SLOPE 3.93, PBLUC_R_SQUARED 0.477, read-out: LUCIFERASE INFECTION ASSAY - IC50): 5.48 µM
COc1cc(OC)cc(-c2cnc3cnc(-c4cccc(OC(C)C)c4)cn23)c1	> 8.47	IC50 (PBLUC_HILL_SLOPE 3.99, PBLUC_R_SQUARED 0.348, read-out: LUCIFERASE INFECTION ASSAY - IC50): 6.48 µM
CC(C)(C)c1cc(C(=O)Nc2ccccc2)n(Cc2ccc(Cl)cc2Cl)n1	> 8.2	IC50 (PBLUC_HILL_SLOPE 3.9, PBLUC_R_SQUARED 0.166, read-out: LUCIFERASE INFECTION ASSAY - IC50): 5.99 µM
Cc1ccc(C)c(S(=O)(=O)N(CC(=O)N2CCN(C(=O)c3ccco3)CC2)c2cccc(C(F)(F)F)c2)c1	8.16	IC50 (PBLUC_HILL_SLOPE 4.06, PBLUC_R_SQUARED 0.673, read-out: LUCIFERASE INFECTION ASSAY - IC50): 4.75 µM
O=C1NCC(CSc2nc3cc(Cl)ccc3c(=O)n2C2CCCCC2)O1 (configuration not stated)	7.92	IC50 (PBLUC_HILL_SLOPE 3.9, PBLUC_R_SQUARED 0.536, read-out: LUCIFERASE INFECTION ASSAY - IC50): 4.51 µM
COc1ccc(-c2cnc3cnc(/C=C/c4ccccc4)cn23)cc1	2.11	IC50 (PBLUC_HILL_SLOPE 3.95, PBLUC_R_SQUARED 0.779, read-out: LUCIFERASE INFECTION ASSAY - IC50): 1.21 µM
CCOC(=O)c1c(C)oc2nc(CN(C)Cc3ccc(OCC)cc3)nc(N)c12	8.75	IC50 (PBLUC_HILL_SLOPE 4.1, PBLUC_R_SQUARED 0.674, read-out: LUCIFERASE INFECTION ASSAY - IC50): 5.12 µM
Cc1nc2cc(NC(=O)CCCSc3nc4ccccc4[nH]3)ccc2o1	> 10	IC50 (PBLUC_HILL_SLOPE 4.06, PBLUC_R_SQUARED 0.0694, read-out: LUCIFERASE INFECTION ASSAY - IC50): 9.96 µM
CCOc1ccc2c(c1)sc(=N)n2Cc1ccc(Cl)cc1	> 10	IC50 (PBLUC_HILL_SLOPE 3.98, PBLUC_R_SQUARED 0.233, read-out: LUCIFERASE INFECTION ASSAY - IC50): 6.2 µM
FC(F)(F)Oc1cccc(-c2cnc3ccc(-c4cccs4)nn23)c1	7.53	IC50 (PBLUC_HILL_SLOPE 4.13, PBLUC_R_SQUARED 0.323, read-out: LUCIFERASE INFECTION ASSAY - IC50): 4.43 µM
CC(C)Cn1c(-c2ccccc2F)nc2c(c(=O)c3ccccc3n2C)c1=O	7.64	IC50 (PBLUC_HILL_SLOPE 4.02, PBLUC_R_SQUARED 0.715, read-out: LUCIFERASE INFECTION ASSAY - IC50): 4.42 µM
COc1cccc(-c2cn3c(-c4ccccc4Cl)cnc3cn2)c1F	6.25	IC50 (PBLUC_HILL_SLOPE 4, PBLUC_R_SQUARED 0.571, read-out: LUCIFERASE INFECTION ASSAY - IC50): 3.61 µM
CCn1c2ccccc2c2cc(NC(=O)COC(=O)CC3CCCC3)ccc21	9.1	IC50 (PBLUC_HILL_SLOPE 3.89, PBLUC_R_SQUARED 0.506, read-out: LUCIFERASE INFECTION ASSAY - IC50): 5.17 µM
FC(F)(F)Oc1cccc(-c2cnc3ccc(-c4cncnc4)nn23)c1	3.91	IC50 (PBLUC_HILL_SLOPE 4.12, PBLUC_R_SQUARED 0.479, read-out: LUCIFERASE INFECTION ASSAY - IC50): 2.29 µM
CCc1nn2c(NCc3ccccn3)cc(C)nc2c1-c1ccccc1	> 9.61	IC50 (PBLUC_HILL_SLOPE 4, PBLUC_R_SQUARED 0.354, read-out: LUCIFERASE INFECTION ASSAY - IC50): 6.15 µM
CC(Oc1ccc2ccc(=O)oc2c1)C(=O)N1CCc2ccccc21 (configuration not stated)	6.27	IC50 (PBLUC_HILL_SLOPE 3.92, PBLUC_R_SQUARED 0.713, read-out: LUCIFERASE INFECTION ASSAY - IC50): 3.58 µM
CC(C)(C)c1cc(NC(=O)Nc2ccc(C#N)cc2)n(-c2ccccc2)n1	0.0487	IC50 [1]: 0.0279 µM
Cc1cc(C)n(-c2ccc(NC(=O)C3(c4ccccc4)CC3)cn2)n1	0.834	IC50 (PBLUC_HILL_SLOPE 3.93, PBLUC_R_SQUARED 0.515, read-out: LUCIFERASE INFECTION ASSAY - IC50): 0.477 µM
CC(OC(=O)c1cccc(-n2cccc2)c1)C(=O)N1CCCC1 (configuration not stated)	8.03	IC50 (PBLUC_HILL_SLOPE 4.03, PBLUC_R_SQUARED 0.34, read-out: LUCIFERASE INFECTION ASSAY - IC50): 4.65 µM

Compound	IC90 [µM]	further results
Cc1cc(NCc2ccccn2)n2ncc(-c3ccccc3Cl)c2n1	> 9.43	IC50 (PBLUC_HILL_SLOPE 4.03, PBLUC_R_SQUARED 0.181, read-out: LUCIFERASE INFECTION ASSAY - IC50): 5.66 µM
O=C(CCc1ccc(O)cc1)NNC(=S)Nc1ccc(Cl)c(Cl)c1	> 8.59	IC50 (PBLUC_HILL_SLOPE 3.89, PBLUC_R_SQUARED 0.475, read-out: LUCIFERASE INFECTION ASSAY - IC50): 5.88 µM
c1ccc(-c2cc(NCCCn3ccnc3)nc3ccccc23)cc1	8.58	IC50 (PBLUC_HILL_SLOPE 4.01, PBLUC_R_SQUARED 0.225, read-out: LUCIFERASE INFECTION ASSAY - IC50): 4.96 µM
O=C(c1nn(-c2ccccc2)c(=O)c2ccccc12)N(CCCN1CCOCC1)Cc1cccs1	> 10	IC50 (PBLUC_HILL_SLOPE 4.06, PBLUC_R_SQUARED 0.124, read-out: LUCIFERASE INFECTION ASSAY - IC50): 8.65 µM
O=C(Nc1nc(C23CC4CC(CC(C4)C2)C3)cs1)C1=COCCO1	> 10	IC50 (PBLUC_HILL_SLOPE 3.95, PBLUC_R_SQUARED 0.0619, read-out: LUCIFERASE INFECTION ASSAY - IC50): 7.07 µM
Cc1cc(C)n(-c2nc(-c3ccccc3)cc(N3CCCCCC3)n2)n1	7.45	IC50 (PBLUC_HILL_SLOPE 3.96, PBLUC_R_SQUARED 0.269, read-out: LUCIFERASE INFECTION ASSAY - IC50): 4.28 µM
Cc1cc2ncc(-c3ccnc(SCc4cccc(Cl)c4)n3)c(C)n2n1	8.63	IC50 (PBLUC_HILL_SLOPE 3.9, PBLUC_R_SQUARED 0.625, read-out: LUCIFERASE INFECTION ASSAY - IC50): 4.91 µM
CN(C)Cc1ccccc1NC(=O)Nc1ccc(Cl)cc1	7.23	IC50 (PBLUC_HILL_SLOPE 3.91, PBLUC_R_SQUARED 0.658, read-out: LUCIFERASE INFECTION ASSAY - IC50): 4.13 µM
Cn1ccnc1Sc1ncnc2ccsc12	9.45	IC50 (PBLUC_HILL_SLOPE 4.08, PBLUC_R_SQUARED 0.748, read-out: LUCIFERASE INFECTION ASSAY - IC50): 5.51 µM
CC(Sc1nc(N)c2ccsc2n1)c1nc(-c2ccccc2)no1 (configuration not stated)	> 10	IC50 (PBLUC_HILL_SLOPE 3.96, PBLUC_R_SQUARED 0.141, read-out: LUCIFERASE INFECTION ASSAY - IC50): > 10 µM
O=C(CN1C(=O)NC(Cc2ccccc2)(c2ccccc2)C1=O)N1CCc2ccccc2C1 (configuration not stated)	> 10	IC50 (PBLUC_HILL_SLOPE 3.92, PBLUC_R_SQUARED 0.472, read-out: LUCIFERASE INFECTION ASSAY - IC50): 7.9 µM
CCn1c(NC(=O)Cc2ccc(C)c(OC)c2)nc2ccccc21	8.25	IC50 (PBLUC_HILL_SLOPE 4.04, PBLUC_R_SQUARED 0.646, read-out: LUCIFERASE INFECTION ASSAY - IC50): 4.79 µM
O=C(NCCSCc1ccccc1Cl)c1cccs1	8.99	IC50 (PBLUC_HILL_SLOPE 3.91, PBLUC_R_SQUARED 0.447, read-out: LUCIFERASE INFECTION ASSAY - IC50): 5.12 µM
O=C(CNc1ccc(C(F)(F)F)cc1Cl)Nc1cccc(C(=O)NC2CC2)c1	7.38	IC50 (PBLUC_HILL_SLOPE 3.94, PBLUC_R_SQUARED 0.579, read-out: LUCIFERASE INFECTION ASSAY - IC50): 4.23 µM
CCNC(=O)C(C)NC(=O)c1cc(-c2ccccc2)nc2c1cnn2Cc1ccccc1Cl (configuration not stated)	0.0487	IC50 [1]: 0.0279 µM
O=C(NC1CC1)c1ccc(CN(C2CC2)S(=O)(=O)c2cccs2)cc1	> 10	IC50 (PBLUC_HILL_SLOPE 4.12, PBLUC_R_SQUARED 0.383, read-out: LUCIFERASE INFECTION ASSAY - IC50): 7.92 µM
O=C1C(=O)N(Cc2ccncc2)c2ccccc21	> 13.9	IC50 (PBLUC_HILL_SLOPE 4.07, PBLUC_R_SQUARED 0.778, read-out: LUCIFERASE INFECTION ASSAY - IC50): 8.1 µM
Cc1ccc(N(CC(=O)Nc2ccc(F)cc2F)C2=NC(=O)CS2)cc1	9.47	IC50 (PBLUC_HILL_SLOPE 3.93, PBLUC_R_SQUARED 0.513, read-out: LUCIFERASE INFECTION ASSAY - IC50): 5.41 µM
N#Cc1ccc(-c2cnc3cnc(-c4cccc(Cl)c4)cn23)cc1	> 9.98	IC50 (PBLUC_HILL_SLOPE 4, PBLUC_R_SQUARED 0.258, read-out: LUCIFERASE INFECTION ASSAY - IC50): 8.15 µM
O=C(NNC(=O)c1csnn1)c1ccc(C(F)(F)F)cc1	1.19	IC50 (PBLUC_HILL_SLOPE 3.95, PBLUC_R_SQUARED 0.658, read-out: LUCIFERASE INFECTION ASSAY - IC50): 0.684 µM
